# Source: patent publication US20250195536A1, “BICYCLOOCTANE KRAS INHIBITORS” (Incyte Corporation, priority 2023, published 2025)
# How the values were obtained:
# KRAS G12D = KRAS G12D (Homo sapiens, UniProt P01116, G12D); experiment: GDP-GTP exchange assay (KRAS G12D); assay type: biochemical; settings: bodipy-GDP/GppNHp exchange with SOS1; 4 h pre-incubation, 2 h reaction;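 further: one dagger IC50 up to 100 nM and two daggers above 100 nM up to 1 μM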
# In short: (§1)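 IC50 came from a four-parameter fit of fluorescence loss (485/520 nm) as SOS1 (150 nM) swapped bodipy-GDP for GppNHp (500 μM) on 2.5 nM KRAS, final concentrations. Compounds were pre-incubated 4 h at r.t. (pH 7.5 Hepes, 10 mM MgCl2); exchange ran 2 h (G12D) or 3 h (G12V).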
# KRAS G12V = KRAS G12V (Homo sapiens, UniProt P01116, G12V); experiment: GDP-GTP exchange assay (KRAS G12V); assay type: biochemical; settings: bodipy-GDP/GppNHp exchange with SOS1; 3 h incubation after GppNHp-SOS1;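 further: one dagger IC50 up to 100 nM and two daggers above 100 nM up to 1 μM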
# In short: as §1
# [1] = Caco2 assay (permeability, Papp A-B); assay type: in vitro ADME; settings: human, Caco-2, absorptive direction (A-B), 50 μM test compound, 4% BSA in receiver
# In short: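 Absorptive (A-B) Papp: 50 μM test compound in HBSS added to apical side of 22-25-day Caco-2 monolayers (TEER 300 Ω·cm^2), receiver buffer containing 4% BSA. After 120 min at 37 °C, 5% CO2, both sides analysed by LCMS; Papp calculated from flux rate normalized to area and donor amount.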
# KRAS G12D, sequence (P01116 1-188 isoform P01116-2 G12D): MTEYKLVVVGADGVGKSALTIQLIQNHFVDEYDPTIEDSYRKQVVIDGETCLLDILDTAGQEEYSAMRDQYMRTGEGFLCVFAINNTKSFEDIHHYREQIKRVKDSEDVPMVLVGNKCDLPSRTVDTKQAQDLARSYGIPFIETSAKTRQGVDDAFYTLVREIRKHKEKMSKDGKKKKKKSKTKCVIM
# KRAS G12V, sequence (P01116 1-188 isoform P01116-2 G12V): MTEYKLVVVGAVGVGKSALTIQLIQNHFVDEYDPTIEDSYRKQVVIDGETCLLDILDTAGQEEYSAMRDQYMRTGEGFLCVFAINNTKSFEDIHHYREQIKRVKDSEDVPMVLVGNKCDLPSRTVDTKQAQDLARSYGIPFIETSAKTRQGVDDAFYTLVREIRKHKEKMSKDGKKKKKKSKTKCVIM
G12D_exchange (KRAS_G12D exchange assay IC50) (KRAS G12D),G12V_exchange (KRAS_G12V exchange assay IC50) (KRAS G12V),"Papp A→B at 120 min, 50 μM [1] [×10⁻⁶ cm/s]",SMILES
†,†,≤ 0.5,"Cc1nc2c(F)c(-c3cccc(Cl)c3Cl)c(CCC#N)cc2c2c1cc([C@H]1[C@H]3C[C@H](CN(c4ccn(C)c(=O)c4)C3)N1C(=O)C1CC1)n2[C@H]1[C@H]2CN[C@@H]1C2 (atropisomer, axis not shown; (Ra)) [Example 35, 3-((Ra)-1-((1R,4R,5S)-2-azabicyclo[2.1.1]hexan-5-yl)-2-((1S,5R,7R)-6-(cyclopropanecarbonyl)-3-(1-methyl-2-oxo-1,2-dihydropyridin-4-yl)-3,6-diazabicyclo[3.2.1]octan-7-yl)-7-(2,3-dichlorophenyl)-6-fluoro-4-methyl-1H-pyrrolo[3,2-c]quinolin-8-yl)propanenitrile]"
†,†,≤ 0.5,"Cc1nc2c(F)c(-c3cccc(Cl)c3Cl)c(CCC#N)cc2c2c1cc([C@H]1[C@H]3C[C@H](CN(c4cc(=O)n(C)cn4)C3)N1C(=O)C1CC1)n2[C@H]1[C@H]2CN[C@@H]1C2 (atropisomer, axis not shown; (Ra)) [Example 69, 3-((Ra)-1-((1R,4R,5S)-2-azabicyclo[2.1.1]hexan-5-yl)-2-((1S,5R,7R)-6-(cyclopropanecarbonyl)-3-(1-methyl-6-oxo-1,6-dihydropyrimidin-4-yl)-3,6-diazabicyclo[3.2.1]octan-7-yl)-7-(2,3-dichlorophenyl)-6-fluoro-4-methyl-1H-pyrrolo[3,2-c]quinolin-8-yl)propanenitrile]"
†,†,≤ 0.5,"Cc1nc2c(F)c(-c3cccc(Cl)c3Cl)c(CCC#N)cc2c2c1cc([C@H]1[C@H]3C[C@H](CN(c4ccc(C(F)F)nc4)C3)N1C(=O)C1CC1)n2[C@H]1[C@H]2CN[C@@H]1C2 (atropisomer, axis not shown; (Ra)) [Example 22, 3-((Ra)-1-((1R,4R,5S)-2-azabicyclo[2.1.1]hexan-5-yl)-2-((1S,5R,7R)-6-(cyclopropanecarbonyl)-3-(6-(difluoromethyl)pyridin-3-yl)-3,6-diazabicyclo[3.2.1]octan-7-yl)-7-(2,3-dichlorophenyl)-6-fluoro-4-methyl-1H-pyrrolo[3,2-c]quinolin-8-yl)propanenitrile]"
††,†,≤ 0.5,"COc1ccc(N2C[C@@H]3C[C@H](C2)N(C(=O)C2CC2)[C@H]3c2cc3c(C)nc4c(F)c(-c5cccc(Cl)c5Cl)c(CCC#N)cc4c3n2[C@H]2[C@H]3CN[C@@H]2C3)cn1 (atropisomer, axis not shown; (Ra)) [Example 24, 3-((Ra)-1-((1R,4R,5S)-2-azabicyclo[2.1.1]hexan-5-yl)-2-((1S,5R,7R)-6-(cyclopropanecarbonyl)-3-(6-methoxypyridin-3-yl)-3,6-diazabicyclo[3.2.1]octan-7-yl)-7-(2,3-dichlorophenyl)-6-fluoro-4-methyl-1H-pyrrolo[3,2-c]quinolin-8-yl)propanenitrile]"
†,†,≤ 0.5,"Cc1nc2c(F)c(-c3cccc(Cl)c3Cl)c(CCC#N)cc2c2c1cc([C@H]1[C@H]3C[C@H](CN(c4ccnc(Br)c4)C3)N1C(=O)C1CC1)n2[C@H]1[C@H]2CN[C@@H]1C2 (atropisomer, axis not shown; (Ra)) [Example 74, 3-((Ra)-1-((1R,4R,5S)-2-azabicyclo[2.1.1]hexan-5-yl)-2-((1S,5R,7R)-3-(2-bromopyridin-4-yl)-6-(cyclopropanecarbonyl)-3,6-diazabicyclo[3.2.1]octan-7-yl)-7-(2,3-dichlorophenyl)-6-fluoro-4-methyl-1H-pyrrolo[3,2-c]quinolin-8-yl)propanenitrile]"
†,†,≤ 0.5,"Cc1nc2c(F)c(-c3cccc(Cl)c3Cl)c(CCC#N)cc2c2c1cc([C@H]1[C@H]3C[C@H](CN(c4ncc(C(F)(F)F)cn4)C3)N1C(=O)C1CC1)n2[C@H]1[C@H]2CN[C@@H]1C2 (atropisomer, axis not shown; (Ra)) [Example 41, 3-((Ra)-1-((1R,4R,5S)-2-azabicyclo[2.1.1]hexan-5-yl)-2-((1S,5R,7R)-6-(cyclopropanecarbonyl)-3-(5-(trifluoromethyl)pyrimidin-2-yl)-3,6-diazabicyclo[3.2.1]octan-7-yl)-7-(2,3-dichlorophenyl)-6-fluoro-4-methyl-1H-pyrrolo[3,2-c]quinolin-8-yl)propanenitrile]"
†,†,≤ 0.5,"Cc1nc2c(F)c(-c3cccc(Cl)c3Cl)c(CCC#N)cc2c2c1cc([C@H]1[C@H]3C[C@H](CN(c4ccn5ncnc5c4)C3)N1C(=O)C1CC1)n2[C@H]1[C@H]2CN[C@@H]1C2 (atropisomer, axis not shown; (Ra)) [Example 72, 3-((Ra)-2-((1S,5R,7R)-3-([1,2,4]triazolo[1,5-a]pyridin-7-yl)-6-(cyclopropanecarbonyl)-3,6-diazabicyclo[3.2.1]octan-7-yl)-1-((1R,4R,5S)-2-azabicyclo[2.1.1]hexan-5-yl)-7-(2,3-dichlorophenyl)-6-fluoro-4-methyl-1H-pyrrolo[3,2-c]quinolin-8-yl) propanenitrile]"
†,†,≤ 0.5,"Cc1nc2c(F)c(-c3cccc(Cl)c3Cl)c(CCC#N)cc2c2c1cc([C@H]1[C@H]3C[C@H](CN(c4cccc(F)c4)C3)N1C(=O)C1CC1)n2[C@H]1[C@H]2CN[C@@H]1C2 (atropisomer, axis not shown; (Ra)) [Example 13, 3-((Ra)-1-((1R,4R,5S)-2-azabicyclo[2.1.1]hexan-5-yl)-2-((1S,5R,7R)-6-(cyclopropanecarbonyl)-3-(3-fluorophenyl)-3,6-diazabicyclo[3.2.1]octan-7-yl)-7-(2,3-dichlorophenyl)-6-fluoro-4-methyl-1H-pyrrolo[3,2-c]quinolin-8-yl)propanenitrile]"
†,†,≤ 0.5,"Cc1nc2c(F)c(-c3cccc(Cl)c3Cl)c(CCC#N)cc2c2c1cc([C@H]1[C@@H]3COC[C@@H](C3)N1C(=O)C1CC1)n2[C@H]1[C@H]2CN[C@@H]1C2 (atropisomer, axis not shown; (Ra)) [Example 115, 3-((Ra)-1-((1R,4R,5S)-2-Azabicyclo[2.1.1]hexan-5-yl)-2-((1R,5R,7R)-6-(cyclopropanecarbonyl)-3-oxa-6-azabicyclo[3.2.1]octan-7-yl)-7-(2,3-dichlorophenyl)-6-fluoro-4-methyl-1H-pyrrolo[3,2-c]quinolin-8-yl)propanenitrile]"
†,†,≤ 0.5,"Cc1nc2c(F)c(-c3cccc(Cl)c3Cl)c(CCC#N)cc2c2c1cc([C@H]1[C@H]3C[C@H](CN(c4ccnc(C(F)F)c4)C3)N1C(=O)C1CC1)n2[C@H]1[C@H]2CN[C@@H]1C2 (atropisomer, axis not shown; (Ra)) [Example 60, 3-((Ra)-1-((1R,4R,5S)-2-azabicyclo[2.1.1]hexan-5-yl)-2-((1S,5R,7R)-6-(cyclopropanecarbonyl)-3-(2-(difluoromethyl)pyridin-4-yl)-3,6-diazabicyclo[3.2.1]octan-7-yl)-7-(2,3-dichlorophenyl)-6-fluoro-4-methyl-1H-pyrrolo[3,2-c]quinolin-8-yl)propanenitrile]"
†,†,≤ 0.5,"Cc1nc2c(F)c(-c3cccc(Cl)c3Cl)c(CCC#N)cc2c2c1cc([C@H]1[C@H]3C[C@H](CN(c4cnn(C)c(=O)c4)C3)N1C(=O)C1CC1)n2[C@H]1[C@H]2CN[C@@H]1C2 (atropisomer, axis not shown; (Ra)) [Example 65, 3-((Ra)-1-((1R,4R,5S)-2-azabicyclo[2.1.1]hexan-5-yl)-2-((1S,5R,7R)-6-(cyclopropanecarbonyl)-3-(1-methyl-6-oxo-1,6-dihydropyridazin-4-yl)-3,6-diazabicyclo[3.2.1]octan-7-yl)-7-(2,3-dichlorophenyl)-6-fluoro-4-methyl-1H-pyrrolo[3,2-c]quinolin-8-yl)propanenitrile]"
††,†,≤ 0.5,"Cc1nc2c(F)c(-c3cccc(Cl)c3Cl)c(CCC#N)cc2c2c1cc([C@H]1[C@H]3C[C@H](CN(c4ccc(OC(F)(F)F)cc4)C3)N1C(=O)C1CC1)n2[C@H]1[C@H]2CN[C@@H]1C2 (atropisomer, axis not shown; (Ra)) [Example 3, 3-((Ra)-1-((1R,4R,5S)-2-azabicyclo[2.1.1]hexan-5-yl)-2-((1S,5R,7R)-6-(cyclopropanecarbonyl)-3-(4-(trifluoromethoxy)phenyl)-3,6-diazabicyclo[3.2.1]octan-7-yl)-7-(2,3-dichlorophenyl)-6-fluoro-4-methyl-1H-pyrrolo[3,2-c]quinolin-8-yl)propanenitrile]"
